Legend:
MCF-7 = assay: CCK-8 cell growth inhibition, MCF-7; format: cell-based, human; settings: Homo sapiens, MCF7; breast cancer; CCK-8 assay, 72-h incubation
Procedure: (§1) In vitro anticancer screening of all newly synthesized compounds towards human solid tumor cells, cervical (SiHa) and ovarian (SKOV3) cancer cell lines, was carried out by standard CCK-8 assay with cisplatin as the positive control, as cisplatin is one of the most used chemotherapy drugs. […] The compound was further evaluated in a dose response study against a panel of solid tumor cells, including cervical cancer cell lines (SiHa and HeLa), ovarian cancer cell lines (SKOV3 and OVCAR-5), breast cancer cell lines (4T1 and MCF-7), lung cancer cell lines (A549 and H460) to test cytotoxic activity. The IC50 values were summarized in Table 2, including the cytotoxic activity of the cisplatin used as reference compound.
The viability of cells as determined using the CCK8 assay method. Cells were seeded (2000–3000 cells per well) in 96-well plates. After incubation for 24 h in serum-containing media, the cells were treated with drugs at different concentrations diluted with culture medium for 72 h at 37 °C with a 5% CO2 atmosphere. […] Finally, absorbance values of test wells (AS), control wells (AC) and blank wells (Ab) at 450 nm were read using the Microplate Reader (Promega, WI). Inhibition ratios were calculated as follows: [(AC − AS)/ (AC−Ab)] × 100%. IC50 values were calculated using GraphPad software.

SiHa = assay: CCK-8 cell growth inhibition, SiHa; format: cell-based, human; settings: Homo sapiens, SiHa; CCK-8 assay, 72-h incubation; read-out: Cell Lines IC50 SiHa
Procedure: as §1
The viability of cells as determined using the CCK8 assay method. Cells were seeded (2000–3000 cells per well) in 96-well plates. After incubation for 24 h in serum-containing media, the cells were treated with drugs at different concentrations diluted with culture medium for 72 h at 37 °C with a 5% CO2 atmosphere. Then, 10 μL CCK8 regent (Promega, WI) was added to each well, and the plates were incubated for 1–4 h at 37 °C. Finally, absorbance values of test wells (AS), control wells (AC) and blank wells (Ab) at 450 nm were read using the Microplate Reader (Promega, WI). Inhibition ratios were calculated as follows: [(AC − AS)/ (AC−Ab)] × 100%. IC50 values were calculated using GraphPad software.

CDK1/cyclinB(h) = biological target: T1, CDK1/cyclinB(h) (Homo sapiens, UniProt P06493); assay: Kinase inhibition assay (Eurofins KinaseProfiler); format: biochemical; settings: ATP at Km
T1 construct: purchased Eurofins (KinaseProfiler service)
Procedure: (§2) Kinase inhibition profiles were determined using KinaseProfiler services provided by Eurofins, and ATP concentrations used are the Km of corresponding kinases.
(§3) CDK1/cyclinB (h) (CDK2/cyclinA (h), CDK3/cyclinE (h), CDK4/CyclinD(h), CDK5/p25 (h), CDK6/cyclinD3 (h)) were incubated with 8 mM MOPS pH 7.0, 0.2 mM EDTA, 0.1 mg/mL histone H1, 10 mM MgAcetate and [gamma-33P]-ATP (specific activity and concentration as required).
(§4) All the reactions above were initiated by the addition of the Mg/ATP mix. After incubation for 40 min at room temperature, the reaction was stopped by the addition of phosphoric acid to a concentration of 0.5%. An amount of 10 µL of the reaction was then spotted onto a P30 filtermat and washed four times for 4 min in 0.425% phosphoric acid and once in methanol prior to drying and scintillation counting.

CDK5/p25(h) = biological target: T2, CDK5/p25(h) (Homo sapiens, UniProt Q00535); assay: Kinase inhibition assay (Eurofins KinaseProfiler); format: biochemical; settings: ATP at Km
T2 construct: purchased Eurofins (KinaseProfiler service)
Procedure: as §2, §3, §4

CDK6/cyclinD3(h) = biological target: T3, CDK6/cyclinD3(h) (Homo sapiens, UniProt Q00534); assay: Kinase inhibition assay (Eurofins KinaseProfiler); format: biochemical; settings: ATP at Km
T3 construct: purchased Eurofins (KinaseProfiler service)
Procedure: as §2, §3, §4

CDK3/cyclinE(h) = biological target: T4, CDK3/cyclinE(h) (Homo sapiens, UniProt Q00526); assay: Kinase inhibition assay (Eurofins KinaseProfiler); format: biochemical; settings: ATP at Km
T4 construct: purchased Eurofins (KinaseProfiler service)
Procedure: as §2, §3, §4

CDK4/cyclinD(h) = biological target: T5, CDK4/cyclinD(h) (Homo sapiens, UniProt P11802); assay: Kinase inhibition assay (Eurofins KinaseProfiler); format: biochemical; settings: ATP at Km
T5 construct: purchased Eurofins (KinaseProfiler service)
Procedure: as §2, §3, §4

CDK2/cyclinA(h) = biological target: T6, CDK2/cyclinA(h) (Homo sapiens, UniProt P24941); assay: Kinase inhibition assay (Eurofins KinaseProfiler); format: biochemical; settings: ATP at Km
T6 construct: purchased Eurofins (KinaseProfiler service)
Procedure: as §2, §3, §4

CDK7/cyclinH/MAT1(h) = biological target: T7, CDK7/cyclinH/MAT1(h) (Homo sapiens, UniProt P50613); assay: Kinase inhibition assay (Eurofins KinaseProfiler); format: biochemical; settings: ATP at Km
T7 construct: purchased Eurofins (KinaseProfiler service)
Procedure: as §2
CDK7/cyclinH/MAT1 (h) was incubated with 8 mM MOPS pH 7.0, 0.2 mM EDTA, 500 uM peptide, 10 mM MgAcetate and [gamma-33P]-ATP (specific activity and concentration as required).
as §4

T2 sequence (Q00535 whole entry): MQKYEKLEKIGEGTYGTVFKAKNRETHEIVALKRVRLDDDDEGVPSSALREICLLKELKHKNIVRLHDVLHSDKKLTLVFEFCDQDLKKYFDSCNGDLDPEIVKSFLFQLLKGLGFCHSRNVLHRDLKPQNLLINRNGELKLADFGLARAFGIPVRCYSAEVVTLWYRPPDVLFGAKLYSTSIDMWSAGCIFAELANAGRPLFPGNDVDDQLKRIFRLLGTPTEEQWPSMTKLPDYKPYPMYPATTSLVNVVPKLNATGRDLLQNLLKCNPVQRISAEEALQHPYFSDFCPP
T2 sequence (Q15078 99-307 partner limits assumed): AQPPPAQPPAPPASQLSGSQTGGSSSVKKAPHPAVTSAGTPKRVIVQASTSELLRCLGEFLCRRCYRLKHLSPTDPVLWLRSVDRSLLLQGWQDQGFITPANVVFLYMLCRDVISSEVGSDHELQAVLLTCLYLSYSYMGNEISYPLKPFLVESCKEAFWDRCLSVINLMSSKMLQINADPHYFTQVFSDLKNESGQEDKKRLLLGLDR
T1 sequence (P06493 whole entry): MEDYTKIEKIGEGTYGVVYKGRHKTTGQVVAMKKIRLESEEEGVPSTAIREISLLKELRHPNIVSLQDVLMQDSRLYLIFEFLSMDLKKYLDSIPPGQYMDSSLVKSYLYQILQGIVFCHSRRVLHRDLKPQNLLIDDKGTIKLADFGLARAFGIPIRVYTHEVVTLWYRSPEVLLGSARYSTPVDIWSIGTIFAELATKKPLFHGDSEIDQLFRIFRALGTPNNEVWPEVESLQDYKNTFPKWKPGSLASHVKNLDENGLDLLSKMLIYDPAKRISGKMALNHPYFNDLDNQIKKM
T1 sequence (P14635 whole entry partner): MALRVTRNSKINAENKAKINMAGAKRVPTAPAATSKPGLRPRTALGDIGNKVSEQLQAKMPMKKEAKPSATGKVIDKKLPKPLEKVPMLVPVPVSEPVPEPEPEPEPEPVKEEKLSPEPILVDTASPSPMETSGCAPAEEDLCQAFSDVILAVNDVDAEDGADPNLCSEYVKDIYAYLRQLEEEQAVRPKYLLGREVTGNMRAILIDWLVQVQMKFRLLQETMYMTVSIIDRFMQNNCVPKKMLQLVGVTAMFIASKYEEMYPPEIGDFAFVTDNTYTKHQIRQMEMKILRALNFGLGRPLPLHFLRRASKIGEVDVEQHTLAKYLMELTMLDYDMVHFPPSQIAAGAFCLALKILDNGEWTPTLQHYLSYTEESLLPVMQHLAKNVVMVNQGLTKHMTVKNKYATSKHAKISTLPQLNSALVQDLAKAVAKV
T5 sequence (P11802 whole entry): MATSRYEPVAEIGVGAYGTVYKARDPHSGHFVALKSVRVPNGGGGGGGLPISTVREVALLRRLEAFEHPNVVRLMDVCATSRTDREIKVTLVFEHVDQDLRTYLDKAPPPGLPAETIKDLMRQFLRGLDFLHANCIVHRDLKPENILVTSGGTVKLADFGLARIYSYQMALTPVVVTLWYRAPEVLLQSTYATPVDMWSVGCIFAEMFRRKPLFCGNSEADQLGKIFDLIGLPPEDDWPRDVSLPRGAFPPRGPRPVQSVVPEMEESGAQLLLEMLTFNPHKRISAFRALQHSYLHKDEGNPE
T5 sequence (P30281 whole entry partner): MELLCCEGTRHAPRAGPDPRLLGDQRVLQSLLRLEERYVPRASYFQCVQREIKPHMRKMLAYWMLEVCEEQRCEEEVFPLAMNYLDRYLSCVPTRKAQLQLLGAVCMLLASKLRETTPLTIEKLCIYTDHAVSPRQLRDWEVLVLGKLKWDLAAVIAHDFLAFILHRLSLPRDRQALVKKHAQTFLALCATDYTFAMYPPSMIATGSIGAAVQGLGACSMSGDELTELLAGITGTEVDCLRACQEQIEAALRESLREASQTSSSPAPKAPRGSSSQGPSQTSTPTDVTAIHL
T7 sequence (P50613 whole entry): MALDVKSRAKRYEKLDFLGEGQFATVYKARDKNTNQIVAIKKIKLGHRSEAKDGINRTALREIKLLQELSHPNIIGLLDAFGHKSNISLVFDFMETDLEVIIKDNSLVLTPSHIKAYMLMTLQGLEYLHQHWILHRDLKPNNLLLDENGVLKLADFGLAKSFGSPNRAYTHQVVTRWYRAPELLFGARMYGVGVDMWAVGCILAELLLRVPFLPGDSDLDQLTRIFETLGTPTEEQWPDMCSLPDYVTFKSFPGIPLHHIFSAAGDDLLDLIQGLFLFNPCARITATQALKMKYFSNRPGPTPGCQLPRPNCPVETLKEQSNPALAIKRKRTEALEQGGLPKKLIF
T7 sequence (P51946 whole entry partner): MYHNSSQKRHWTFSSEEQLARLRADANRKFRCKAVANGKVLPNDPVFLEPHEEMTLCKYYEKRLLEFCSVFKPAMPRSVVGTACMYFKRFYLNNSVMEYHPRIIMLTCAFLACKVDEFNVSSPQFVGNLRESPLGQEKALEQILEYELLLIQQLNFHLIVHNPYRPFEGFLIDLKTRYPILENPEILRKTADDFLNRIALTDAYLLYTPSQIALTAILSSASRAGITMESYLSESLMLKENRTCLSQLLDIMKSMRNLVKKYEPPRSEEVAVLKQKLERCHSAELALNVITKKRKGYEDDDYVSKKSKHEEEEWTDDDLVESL
T7 sequence (P51948 whole entry partner): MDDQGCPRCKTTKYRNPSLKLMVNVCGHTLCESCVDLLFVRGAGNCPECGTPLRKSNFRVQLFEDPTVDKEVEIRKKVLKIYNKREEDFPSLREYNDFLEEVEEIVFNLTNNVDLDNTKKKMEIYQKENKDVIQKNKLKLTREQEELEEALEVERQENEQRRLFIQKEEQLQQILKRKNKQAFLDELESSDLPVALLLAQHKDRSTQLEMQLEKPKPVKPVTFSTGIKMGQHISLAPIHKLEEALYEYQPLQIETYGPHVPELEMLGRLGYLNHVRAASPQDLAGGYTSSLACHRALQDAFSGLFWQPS
T4 sequence (Q00526 whole entry): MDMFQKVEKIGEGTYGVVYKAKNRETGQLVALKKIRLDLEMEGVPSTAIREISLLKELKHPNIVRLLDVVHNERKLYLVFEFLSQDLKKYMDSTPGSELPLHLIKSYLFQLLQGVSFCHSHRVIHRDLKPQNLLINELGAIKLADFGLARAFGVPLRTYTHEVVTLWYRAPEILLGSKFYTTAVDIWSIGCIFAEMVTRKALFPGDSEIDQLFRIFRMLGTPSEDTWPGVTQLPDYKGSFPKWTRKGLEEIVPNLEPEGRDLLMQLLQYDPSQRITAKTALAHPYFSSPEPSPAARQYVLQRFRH
T4 sequence (P24864 whole entry partner): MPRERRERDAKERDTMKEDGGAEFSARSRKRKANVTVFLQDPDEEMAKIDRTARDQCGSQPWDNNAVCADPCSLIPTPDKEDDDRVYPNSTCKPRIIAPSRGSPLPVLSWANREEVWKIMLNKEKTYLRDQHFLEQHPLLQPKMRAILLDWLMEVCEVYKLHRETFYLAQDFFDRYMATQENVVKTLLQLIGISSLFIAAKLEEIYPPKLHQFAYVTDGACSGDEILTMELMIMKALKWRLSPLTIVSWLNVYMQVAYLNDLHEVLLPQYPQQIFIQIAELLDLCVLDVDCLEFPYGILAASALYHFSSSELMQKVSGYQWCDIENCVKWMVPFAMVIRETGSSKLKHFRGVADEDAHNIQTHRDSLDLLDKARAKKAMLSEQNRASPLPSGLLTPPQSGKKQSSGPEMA
T3 sequence (Q00534 whole entry): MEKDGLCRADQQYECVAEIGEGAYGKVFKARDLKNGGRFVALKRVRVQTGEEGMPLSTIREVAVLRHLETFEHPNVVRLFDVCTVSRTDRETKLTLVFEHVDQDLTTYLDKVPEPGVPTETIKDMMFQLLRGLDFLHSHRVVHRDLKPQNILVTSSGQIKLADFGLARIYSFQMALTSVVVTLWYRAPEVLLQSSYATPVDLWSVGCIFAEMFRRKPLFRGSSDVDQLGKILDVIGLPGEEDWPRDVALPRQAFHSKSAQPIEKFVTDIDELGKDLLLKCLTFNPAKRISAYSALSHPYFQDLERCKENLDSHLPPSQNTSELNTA
T3 sequence (P30281 whole entry partner): as the sequence (P30281 whole entry partner) above

CC(C)n1nnc2ccc(-c3nc(Nc4ccc(CNC(=O)C5(C(=O)Nc6ccccc6)CC5)cc4)ncc3F)cc21 [12O]
IC50 (MCF-7): 10 nM | IC50 (SiHa): 9 nM | inhibition at 1 µM (CDK1/cyclinB(h); 1 µM): 98% | IC50 (CDK1/cyclinB(h)): 10 nM | inhibition at 1 µM (CDK5/p25(h); 1 µM): 99% | IC50 (CDK5/p25(h)): 6 nM | inhibition at 1 µM (CDK6/cyclinD3(h)): 74% | inhibition at 1 µM (CDK3/cyclinE(h)): 86% | inhibition at 1 µM (CDK4/cyclinD(h); 1 µM): 91% | IC50 (CDK4/cyclinD(h)): 157 nM | inhibition at 1 µM (CDK2/cyclinA(h); 1 µM): 99% | IC50 (CDK2/cyclinA(h)): 5 nM | inhibition at 1 µM (CDK7/cyclinH/MAT1(h)): 53%

Reference: PMC7664879, “Discovery of 12O—A Novel Oral Multi-Kinase Inhibitor for the Treatment of Solid Tumor” (Molecules, 2020)
